Here are results for seven compounds from PMC4409069 (PLoS ONE, 2015).

Data set [1] concerns A/Philippines/2/82/H3N2 (Phil82). The class given is cell-based, influenza A virus. Particulars: for IC50: read-out: approximate 50% viral neutralizing concentration.
In data set [2] the test system is A/California/04/09/H1N1 pandemic strain (Cal09). The class given is cell-based, influenza A virus.
Data set [3] relates to A/New York/312/01/H1N1 (NY01) seasonal strain. The class given is cell-based, influenza A virus.
Data set [4] deals with Mex 1:7 (HA gene of A/Mexico/4108/09/H1N1 with the other 7 genes of NY01). The class given is cell-based, influenza A virus.
For data set [5], the system named is Mex 2:6 (HA and NA of A/Mexico/09/H1N1, other genes of NY01). The class given is cell-based, influenza A virus.
The subject of the next data set is MDCK cells. The data set is described as follows: LDH assay of cell viability, MDCK cells. Particulars: peptide 12.8 μM, 24 hrs, mean±SEM of 3 or 4 experiments. The format is cell-based, canine. The method, then:
The LDH assay was performed using LDH cytoxicity detection kit (Clontech, CA, USA) according to the manufacturer’s instructions. In brief, MDCK cells were incubated with Phil82 IAV (with or without LL-37 and related peptides). Cells were also incubated with peptides alone. The incubation time (24 hrs) and assay conditions were exactly same as in fluorescent focus assays. The LDH activity was measured after the 24 hrs incubation of cells with IAV and/or peptides. Controls included uninfected/untreated cells as negative control (NC) and cells treated with lysis solution as positive control (PC). The percent cytotoxicity is obtained from OD values using the formula: [(Sample OD—NC OD) ÷ (PC OD—NC OD)] ×100

A further data set deals with HBTE cells. The data set is described as follows: LDH assay of cell viability, HBTE cells. The class given is cell-based, human. Particulars: 24 hrs, mean±SEM of 3 or 4 experiments.
Data set [6] deals with hemagglutination activity of Phil82 IAV. Nature of the data set: Hemagglutination (HA) inhibition assay. The format is biochemical, influenza A virus. Particulars: concentrations up to 12μM, three experiments, human type O red cells. On the procedure:
HA inhibition was measured by serially diluting LL-37 peptides in round bottom 96 well plates (Serocluster U-Vinyl plates; Costar, Cambridge, MA) using PBS as a diluent and human type O red cells as described. 40 HA units of virus was used in the assay.

Data set [7] has as its system neuraminidase (NA) activity of Phil82. The format is biochemical, influenza A virus.
The next data set concerns NA activity of Cal09. The class given is biochemical, influenza A virus.
Another data set has as its system NY01. The format is cell-based, influenza A virus.
The subject of the next data set is Cal09. The class given is cell-based, influenza A virus.
Data set [8] deals with A/California/04/09/H1N1 pandemic strain (Cal09). The format is cell-based, influenza A virus. The source holds these as a separate data set.
Data set [9] has the same test system. The class given is cell-based, influenza A virus. This is another data set of the same source.
A further data set concerns A/PR/8/34/H1N1 (PR-8). The class given is cell-based, influenza A virus.
Setting [10] is: HBTE no IAV, peptide 12.8 μM, LL-23V9 n = 1, * significantly reduced vs control.
[11] abbreviates: HBTE+IAV (Phil82), peptide 12.8 μM, LL-23V9 n = 1, * significantly reduced vs control.
Setting [12] is: read-out: approximate 50% viral neutralizing concentration.

Where two headings read alike, the source gives them in different places. Ends that are not written are not given here.

As for `CC[C@H](C)[C@H](NC(=O)[C@H](CCCCN)NC(=O)[C@H](CCC(=O)O)NC(=O)[C@H](CCCCN)NC(=O)[C@H](CO)NC(=O)[C@H](CCCCN)NC(=O)[C@H](CCCNC(=N)N)NC(=O)[C@H](Cc1ccccc1)NC(=O)[C@H](Cc1ccccc1)NC(=O)[C@H](CC(=O)O)NC(=O)CNC(=O)[C@H](CC(C)C)NC(=O)[C@@H](N)CC(C)C)C(=O)NCC(=O)N[C@@H](CCCCN)C(=O)N[C@@H](CCC(=O)O)C(=O)N[C@@H](Cc1ccccc1)C(=O)N[C@@H](CCCCN)C(=O)N[C@@H](CCCNC(=N)N)C(=O)N[C@H](C(=O)N[C@H](C(=O)N[C@@H](CCC(N)=O)C(=O)N[C@@H](CCCNC(=N)N)C(=O)N[C@H](C(=O)N[C@@H](CCCCN)C(=O)N[C@@H](CC(=O)O)C(=O)N[C@@H](Cc1ccccc1)C(=O)N[C@@H](CC(C)C)C(=O)N[C@@H](CCCNC(=N)N)C(=O)N[C@@H](CC(N)=O)C(=O)N[C@@H](CC(C)C)C(=O)N[C@H](C(=O)N1CCC[C@H]1C(=O)N[C@@H](CCCNC(=N)N)C(=O)N[C@H](C(=O)N[C@@H](CCC(=O)O)C(=O)N[C@@H](CO)C(=O)O)[C@@H](C)O)C(C)C)[C@@H](C)CC)C(C)C)[C@@H](C)CC` [LL-37, reference compound], in data set [1], the “antiviral (neutralizing) activity, in words” value (“antiviral” for short) is “clear dose-related antiviral activity”. For the same compound, the IC50 in data set [1] was around 2 µg/mL. In addition, the “effect on replication, in words” value in data set [2] is “only slight inhibition at intermediate doses of LL-37 and actual enhancement of the replication of this strain at higher doses”; in data set [3], “clear dose related inhibition”; in data set [4] it was “inhibited at all concentrations tested”; in data set [5], “inhibited by LL-37 at the lower concentration of 2.2μM but higher concentrations of LL-37 were not inhibitory”. Further, the “% Viability of MDCK or HBTE Cells” value in the data set on MDCK cells (MDCK no IAV) is listed as 92±11%; in the data set with MDCK cells (MDCK+IAV (Phil82)), 99±12%; with HBTE cells (HBTE no IAV, peptide 6.4 μM), 95±2%; with HBTE cells (setting [10]), 57±6* %; in the data set with HBTE cells (HBTE+IAV (Phil82), peptide 3.2 μM), 105±4%; with HBTE cells (HBTE+IAV (Phil82), peptide 6.4 μM), 91±4%. Moreover, the “% Viability of MDCK or HBTE Cells” value in the data set on HBTE cells (setting [11]) was 55±6* %. In addition, in [6], the “inhibition of hemagglutination activity” value is “No inhibition was observed”. Also, the “inhibition of NA activity, in words” value in data set [7] is “neither LL-37 nor the related peptides inhibited NA activity”; in the data set with NA activity of Cal09, “did not inhibit NA activity”. Besides, the “concentrations that significantly decreased viral RNA in supernatants and cells” value in the data set on NY01 is at least 0.4 µM. Also, the “viral RNA at 24 hrs after infection, in words” value in the data set on NY01 was “significant reduction in RNA of NY01 in both cells and supernatant”; with Cal09 it was “trend to increase of Cal09 in the cells in presence of LL-37 but this was again highly variable and not statistically significant”. Also, the “viral uptake by MDCK cells (viral M protein RNA), in words” value in the data set with NY01 is given as “significant reduction of uptake”. In addition, the “viral uptake by MDCK cells (viral M protein RNA in cell lysate), in words” value in the data set with Cal09 is on record as “no significant difference in viral uptake”.

In the case of `CCOC(=O)C1=C[C@@H](OC(CC)CC)[C@H](NC(C)=O)[C@@H](N)C1` [Oseltamivir], the “inhibition of NA activity, in words” value in [7] is on record as “marked reduction of NA activity”.

Consider CRAMP [reference compound], for which the “effect on replication, in words” value is listed as “did not significantly inhibit” in [2], “inhibited (albeit modestly)” in data set [3], “inhibited (albeit modestly)” in data set [4] and “did not significantly inhibit” in data set [5].

As for GIKEFKRIVQRIKDFLRNLV-NH2 [GI-20], the “antiviral” value in data set [1] is “approached or equaled that of full length LL-37”. The “effect on replication, in words” value in data set [2] is on record as “significant inhibition”. Besides, the “effect on infectivity, in words” value in [8] and in data set [9] was “significant inhibition” throughout. Further, the “% Viability of MDCK or HBTE Cells” value with MDCK cells (MDCK no IAV) was found to be 103±7%; in the data set on MDCK cells (MDCK+IAV (Phil82)), 107±3%; with HBTE cells (setting [10]), 103±3%; in the data set with HBTE cells (setting [11]), 104±3%. The “inhibition of hemagglutination activity” value in [6] is “No inhibition was observed”.

For “HNP-1: the human defensin HNP-1 (human neutrophil peptide), purchased from Bachem [reference compound]”, the “effect on replication, in words” value in data set [2] was “did inhibit Cal09”.

Turning to LLGDFFRKSKEKIGKEFKRIVQR [LL-23], the “antiviral” value in data set [1] is reported as “slight antiviral activity”. Besides, the “approximate 50% viral neutralizing concentration” value (in data set [1]; with A/PR/8/34/H1N1 (PR-8); in data set [3]) was >32μg/ml (>11.3 μM) in each case. The IC50 (in data set [1]; in the data set with A/PR/8/34/H1N1 (PR-8) (setting [12]); in [3] (setting [12])) was above 11.3 µM throughout. For the same compound, the “effect on replication, in words” value in [2] is on record as “modest but statistically significant inhibition”. In addition, the “effect on infectivity, in words” value in data set [8] and in data set [9] was “without activity” in each case. In addition, the “% Viability of MDCK or HBTE Cells” value was 105±4% in the data set with MDCK cells (MDCK no IAV), 101±11% in the data set with MDCK cells (MDCK+IAV (Phil82)), 98±1% in the data set with HBTE cells (setting [10]) and 98±3% with HBTE cells (setting [11]). For the same compound, the “inhibition of hemagglutination activity” value in data set [6] was “No inhibition was observed”.

Take LLGDFFRKVKEKIGKEFKRIVQR [LL-23V9]: the “antiviral” value in data set [1] is listed as “significantly increased activity compared to LL-23”. Moreover, the “effect on replication, in words” value in [2] is “modest but statistically significant inhibition”. The “effect on infectivity, in words” value in data set [8] and in data set [9] was “without activity” throughout. Also, the “% Viability of MDCK or HBTE Cells” value in the data set on MDCK cells (MDCK no IAV) came out at 112±6%; in the data set with MDCK cells (MDCK+IAV (Phil82)), 108±7%; with HBTE cells (setting [10]), 103%; in the data set with HBTE cells (setting [11]) it was 99%. Moreover, the “inhibition of hemagglutination activity” value in data set [6] is “No inhibition was observed”.
